Laboratory results from ChEMBL document CHEMBL2203203, “Structure-activity relationships of 2-arylamido-5,7-dihydro-4H-thieno[2,3-c]pyran-3-carboxamide derivatives as cannabinoid receptor agonists and their analgesic action” (Bioorg Med Chem Lett, 2012).
Active and inactive are the calls of the source.

How the values were obtained:
Cannabinoid receptor 2 [1] = target: T1, Cannabinoid receptor 2 (Homo sapiens, UniProt P34972); assay: Agonist activity at human CB2 receptor after 4 hrs by luciferase reporter gene assay relative to control; assay type: functional
T1 sequence (P34972 whole entry): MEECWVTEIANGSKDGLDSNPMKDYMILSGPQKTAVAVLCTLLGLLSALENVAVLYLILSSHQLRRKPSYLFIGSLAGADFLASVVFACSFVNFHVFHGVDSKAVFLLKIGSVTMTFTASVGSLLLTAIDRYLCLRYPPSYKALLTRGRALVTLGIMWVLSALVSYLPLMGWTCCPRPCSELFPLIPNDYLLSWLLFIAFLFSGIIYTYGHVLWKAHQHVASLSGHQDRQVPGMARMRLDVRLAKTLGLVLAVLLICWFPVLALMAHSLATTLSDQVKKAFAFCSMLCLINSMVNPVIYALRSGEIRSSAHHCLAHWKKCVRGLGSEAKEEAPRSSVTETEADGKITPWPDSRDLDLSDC

Cannabinoid receptor 2 [2] = target: T1, Cannabinoid receptor 2; assay: Agonist activity at human CB2 receptor after 4 hrs by luciferase reporter gene assay; assay type: functional
Cannabinoid receptor 2 [3] = target: T1, Cannabinoid receptor 2; assay: Displacement of [3H]-CP55,940 from human CB2 receptor after 60 mins by microscintillation counting analysis
Mus musculus = assay: Analgesic activity in NMRI mouse assessed as inhibition of acetic acid-induced writhing at 30 mg/kg, po measured for 30 mins relative to vehicle-treated control; assay type: functional; settings: for inhibition in vivo at 30 mg/kg: 0.5 h
Cannabinoid receptor 1 [4] = target: T2, Cannabinoid receptor 1 (Homo sapiens, UniProt P21554); assay: Agonist activity at human CB1 receptor after 4 hrs by luciferase reporter gene assay relative to control; assay type: functional
T2 sequence (P21554 whole entry): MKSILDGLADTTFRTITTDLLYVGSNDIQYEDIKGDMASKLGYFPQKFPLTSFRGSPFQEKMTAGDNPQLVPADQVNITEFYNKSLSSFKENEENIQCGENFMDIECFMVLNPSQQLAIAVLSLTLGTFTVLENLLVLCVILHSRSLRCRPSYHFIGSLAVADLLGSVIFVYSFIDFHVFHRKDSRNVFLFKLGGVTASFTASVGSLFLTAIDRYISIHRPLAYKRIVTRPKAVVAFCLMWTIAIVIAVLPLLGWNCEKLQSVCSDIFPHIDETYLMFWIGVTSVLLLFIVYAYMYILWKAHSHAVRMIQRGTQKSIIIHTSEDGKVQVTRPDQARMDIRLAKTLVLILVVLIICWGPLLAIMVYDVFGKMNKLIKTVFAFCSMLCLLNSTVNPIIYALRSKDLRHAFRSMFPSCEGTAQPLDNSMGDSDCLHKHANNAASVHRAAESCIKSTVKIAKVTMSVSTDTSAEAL

Homo sapiens = species: Homo sapiens; assay: Selectivity ratio of EC50 for human CB1 receptor to EC50 for human CB2 receptor
Cannabinoid receptor 2 [5] = target: T3, Cannabinoid receptor 2 (Rattus norvegicus, UniProt Q9QZN9); assay: Displacement of [3H]-CP55,940 from rat CB2 receptor after 60 mins by microscintillation counting analysis
T3 sequence (Q9QZN9 whole entry): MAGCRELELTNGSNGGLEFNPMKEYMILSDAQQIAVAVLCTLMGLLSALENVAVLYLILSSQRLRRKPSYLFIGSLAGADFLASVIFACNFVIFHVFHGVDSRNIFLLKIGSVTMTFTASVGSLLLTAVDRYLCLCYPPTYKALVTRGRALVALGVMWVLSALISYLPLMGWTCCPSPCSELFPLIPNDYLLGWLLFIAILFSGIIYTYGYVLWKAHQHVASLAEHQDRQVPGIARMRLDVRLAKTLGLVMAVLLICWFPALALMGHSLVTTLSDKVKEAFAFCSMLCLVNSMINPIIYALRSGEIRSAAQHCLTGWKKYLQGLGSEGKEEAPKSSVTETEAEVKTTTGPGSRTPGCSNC

[6] = Half life in rat liver microsomes; assay type: ADME, Microsome
Cannabinoid receptor 1 [7] = target: T2, Cannabinoid receptor 1; assay: Displacement of [3H]-CP55,940 from human CB1 receptor after 60 mins by microscintillation counting analysis
Cannabinoid receptor 1 [8] = target: Cannabinoid receptor 1 (Rattus norvegicus, UniProt P20272); assay: Displacement of [3H]-CP55,940 from rat CB1 receptor after 60 mins by microscintillation counting analysis
Cannabinoid receptor 1 (Rattus norvegicus, UniProt P20272), sequence (P20272 whole entry): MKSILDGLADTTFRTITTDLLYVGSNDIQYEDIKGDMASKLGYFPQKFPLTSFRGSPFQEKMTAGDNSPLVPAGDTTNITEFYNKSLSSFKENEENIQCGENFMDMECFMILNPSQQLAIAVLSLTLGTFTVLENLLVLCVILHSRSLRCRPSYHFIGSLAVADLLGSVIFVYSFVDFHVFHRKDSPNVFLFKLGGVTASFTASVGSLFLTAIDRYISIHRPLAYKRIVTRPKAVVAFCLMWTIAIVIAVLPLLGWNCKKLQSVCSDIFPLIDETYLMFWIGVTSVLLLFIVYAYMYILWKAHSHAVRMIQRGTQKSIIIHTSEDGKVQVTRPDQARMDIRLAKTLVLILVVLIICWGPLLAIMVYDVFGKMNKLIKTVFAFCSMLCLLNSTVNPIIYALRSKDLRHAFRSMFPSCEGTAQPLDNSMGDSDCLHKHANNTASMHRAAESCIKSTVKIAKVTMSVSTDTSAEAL

[9] = Half life in mouse liver microsomes; assay type: ADME, Microsome
Cannabinoid receptor 1 [10] = target: T2, Cannabinoid receptor 1; assay: Agonist activity at human CB1 receptor after 4 hrs by luciferase reporter gene assay; assay type: functional
[11] = Tmax in rat at 3 mg/kg, po; assay type: ADME, organism-based; parameters: dose 3 mg/kg, route oral; settings: in vivo
[12] = Half life in human liver microsomes; assay type: ADME, Microsome
[13] = AUC in rat at 1 mg/kg, iv; assay type: ADME, organism-based; parameters: dose 1 mg/kg, route intravenous; settings: plasma
Rattus norvegicus [14] = assay: Analgesic activity in carrageenan-induced Sprague-Dawley rat allodynia model assessed as increase in paw withdrawal threshold at 30 to 100 mg/kg, po after 30 mins; assay type: functional, organism-based
Rattus norvegicus [15] = assay: Analgesic activity in carrageenan-induced Sprague-Dawley rat allodynia model assessed as effect on paw withdrawal threshold at 10 mg/kg, po after 30 mins; assay type: functional, organism-based; parameters: dose 10 mg/kg
[16] = Oral bioavailability in rat at 3 mg/kg; assay type: ADME, organism-based; settings: in vivo
[17] = Clearance in rat at 1 mg/kg, iv; assay type: ADME, organism-based; parameters: dose 1 mg/kg, route intravenous; settings: in vivo
[18] = Volume of distribution at steady state in rat at 1 mg/kg, iv; assay type: ADME, organism-based; parameters: dose 1 mg/kg, route intravenous; settings: in vivo, read-out: Vdss
Rattus norvegicus [19] = assay: Analgesic activity in carrageenan-induced Sprague-Dawley rat allodynia model assessed as increase in paw withdrawal threshold at 10 to 30 mg/kg, po after 90 mins; assay type: functional, organism-based
[20] = Half life in rat at 1 mg/kg, iv; assay type: ADME, organism-based; parameters: dose 1 mg/kg, route intravenous; settings: in vivo
[21] = Half life in rat at 3 mg/kg, po; assay type: ADME, organism-based; parameters: dose 3 mg/kg, route oral; settings: in vivo
Cannabinoid receptor 2 [22] = target: Cannabinoid receptor 2 (Mus musculus, UniProt P47936); assay: Agonist activity at mouse CB2 receptor after 4 hrs by luciferase reporter gene assay; assay type: functional
Cannabinoid receptor 2 (Mus musculus, UniProt P47936), sequence (P47936 whole entry): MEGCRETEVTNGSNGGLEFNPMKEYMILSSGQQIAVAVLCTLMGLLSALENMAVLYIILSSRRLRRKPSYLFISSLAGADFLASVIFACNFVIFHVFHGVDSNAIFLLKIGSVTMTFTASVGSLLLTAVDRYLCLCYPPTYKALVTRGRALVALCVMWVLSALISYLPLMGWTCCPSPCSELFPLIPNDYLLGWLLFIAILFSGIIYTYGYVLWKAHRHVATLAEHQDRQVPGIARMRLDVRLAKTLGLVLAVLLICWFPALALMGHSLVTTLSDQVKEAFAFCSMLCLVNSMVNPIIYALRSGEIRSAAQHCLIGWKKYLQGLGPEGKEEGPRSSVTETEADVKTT

[23] = target: Cannabinoid receptor 2 (Mus musculus) (UniProt P47936); assay: Agonist activity at mouse CB2 receptor after 4 hrs by luciferase reporter gene assay relative to control; assay type: functional
Cannabinoid receptor 2 (Mus musculus), sequence (P47936 whole entry): as above

Row | SMILES | Efficacy (Cannabinoid receptor 2 [1]) [%] | EC50 (Cannabinoid receptor 2 [2]) [µM] | Ki (Cannabinoid receptor 2 [3]) [µM] | Efficacy (Cannabinoid receptor 1 [4]) [%] | Ratio EC50 (Homo sapiens) | Ki (Cannabinoid receptor 2 [5]) [µM] | half-life [6] [min] | Ki (Cannabinoid receptor 1 [7]) [µM] | Ki (Cannabinoid receptor 1 [8]) [µM] | half-life [9] [min] | EC50 (Cannabinoid receptor 1 [10]) [µM] | further results
1 | O=C(Nc1sc2c(c1C(=O)N1CCCCC1)CCOC2)c1ccccc1OC(F)(F)F | 101 | 0.0095 | 0.347 | 85 | 98 | 2.13 | 3.52 | 19.4 | 22.6 | 10 | 0.925 | inhibition (Mus musculus): inactive
2 | O=C(Nc1sc2c(c1C(=O)N1CC(F)(F)C1)CCOC2)c1ccccc1OC(F)(F)F | 104 | 0.0047 | 0.24 | 104 | 420 | 4.62 | 6.4 | > 30 | > 30 | 25.5 | 1.97 | inhibition (Mus musculus): inactive
3 | O=C(Nc1sc2c(c1C(=O)N1CC(F)(F)C1)CCOC2)c1c(F)cccc1C(F)(F)F | 96 | 0.0065 | 0.444 | 83 | 122 | 0.63 | 14.2 | 11.1 | 13.5 | 51.3 | 0.798 | Tmax [11]: 60 min; half-life [12]: 25.4 min; AUC [13]: 165 ng·h/mL; Activity (Rattus norvegicus [14]): Active; Activity (Rattus norvegicus [15]): inactive; inhibition in vivo at 30 mg/kg (Mus musculus): 38%; bioavailability [16]: 8%; clearance [17]: 102 mL/min/kg; Vd [18]: 3.61 L/kg; Activity (Rattus norvegicus [19]): Active; half-life [20]: 30 min; half-life [21]: 534 min
4 | CC1(C)CCc2sc(NC(=O)c3ccccc3Cl)c(C(=O)NCC3CC3)c21 | 116 | 0.00055 |  | 86 | 30 |  |  |  |  |  | 0.016 | 
5 | COC1CN(C(=O)c2c(NC(=O)c3c(F)cccc3C(F)(F)F)sc3c2CCOC3)C1 | 100 | 0.024 |  | 55 | 275 |  |  |  |  |  | 6.61 | 
6 | COC1CN(C(=O)c2c(NC(=O)c3ccccc3OC(F)(F)F)sc3c2CCOC3)C1 | 100 | 0.038 |  | 45 | 37 |  |  |  |  |  | 1.42 | 
7 | COC1CN(C(=O)c2c(NC(=O)CC(C)(C)C)sc3c2CCCC3)C1 | 110 | 0.047 |  | 63 | 85 |  |  |  |  |  | 3.97 | 
8 | O=C(CN1CCCCC1)Nc1sc2c(c1C(=O)N1CCC(F)(F)CC1)CCCC2 | 104 | 0.026 |  | 100 | 126 |  |  |  |  |  | 3.22 | 
9 | COCCNC(=O)c1c(NC(=O)c2ccccc2Cl)sc2c1CCC(F)(F)C2 | 105 | 0.046 |  | 97 | 21 |  |  |  |  |  | 0.958 | 
10 | O=C(Nc1sc2c(c1C(=O)N1CCOCC1)CCCC2)c1ccccc1Cl | 95 | 0.01 |  | 77 | 25 |  |  |  |  |  | 0.251 | EC50 (Cannabinoid receptor 2 [22]): 0.05 µM; Efficacy [23]: 107%
11 | O=C(Nc1sc2c(c1C(=O)N1CC(F)(F)C1)CCOC2)c1ccccc1C(F)(F)F | 106 | 0.0025 | 0.0815 | 84 | 118 | 0.594 | 8 | 7.19 | > 30 | 37.4 | 0.296 | inhibition in vivo at 30 mg/kg (Mus musculus): 15%
12 | COCCNC(=O)c1c(NC(=O)CC(C)(C)C)sc2c1C(C)(C)CC2 | 100 | 0.0059 |  | 98 | 62 |  |  |  |  |  | 0.368 | 
13 | O=C(Nc1sc2c(c1C(=O)N1CCOCC1)CCOC2)c1c(Cl)cccc1Cl | 76 | 0.695 |  | 78 | 7 |  |  |  |  |  | 4.64 | 
14 | COCCNC(=O)c1c(NC(=O)CC(C)(C)C)sc2c1CCCC2 | 94 | 0.023 |  | 90 | 84 |  |  |  |  |  | 1.91 | 
15 | COCCNC(=O)c1c(NC(=O)c2ccccc2C(F)(F)F)sc2c1CCOC2 | 93 | 0.017 | 0.999 | 45 | 525 | 2.54 | 17.8 | > 30 | > 30 | 19.8 | 8.71 | inhibition (Mus musculus): inactive
16 | O=C(Nc1sc2c(c1C(=O)NCC1CC1)CCOC2)c1ccccc1OC(F)(F)F | 94 | 0.035 |  | 88 | 15 |  |  |  |  |  | 0.519 | 
17 | O=C(Nc1sc2c(c1C(=O)N1CCC(F)(F)CC1)CCOC2)c1c(F)cccc1C(F)(F)F | 97 | 0.0036 |  | 94 | 71 |  |  |  |  |  | 0.251 | 
18 | O=C(Nc1sc2c(c1C(=O)N1CC(F)(F)C1)CCC(F)(F)C2)c1ccccc1Cl | 98 | 0.049 |  | 95 | 2 |  |  |  |  |  | 0.081 | 
19 | O=C(Nc1sc2c(c1C(=O)N1CCC(F)(F)CC1)CCOC2)c1ccccc1C(F)(F)F | 99 | 0.0014 |  | 90 | 57 |  |  |  |  |  | 0.08 | 
20 | O=C(Nc1sc2c(c1C(=O)N1CCCCC1)CCOC2)c1ccccc1C(F)(F)F | 99 | 0.003 | 0.241 | 93 | 204 | 1.61 | 5.28 | 11.7 | 15.1 | 15.5 | 0.607 | inhibition in vivo at 30 mg/kg (Mus musculus): 32%
21 | O=C(Nc1sc2c(c1C(=O)N1CCOCC1)CCOC2)c1ccccc1Cl | 112 | 0.227 |  | 85 | 14 |  |  |  |  |  | 3.27 | 
22 | COC1CN(C(=O)c2c(NC(=O)c3ccccc3C(F)(F)F)sc3c2CCOC3)C1 | 98 | 0.015 | 0.899 | 53 | 387 | 3.11 | 50.4 | > 30 | > 30 | 37.3 | 5.96 | inhibition in vivo at 30 mg/kg (Mus musculus): 15%
23 | O=C(Nc1sc2c(c1C(=O)N1CCOCC1)CCOC2)c1c(F)cccc1C(F)(F)F | 100 | 0.095 |  | 56 | 48 |  |  |  |  |  | 4.54 | 
24 | COCCNC(=O)c1c(NC(=O)c2c(F)cccc2C(F)(F)F)sc2c1CCOC2 | 96 | 0.024 | 0.904 | 58 | 385 | 1.7 | 13.6 | > 30 | > 30 | 21 | 9.36 | inhibition (Mus musculus): inactive
